# Laboratory results: ChEMBL document CHEMBL1201862, “PubChem BioAssay data set” (2004)
#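 Compound exposure: 48 hours, 5 concentrations, 96-well plates. Abbreviation: GI50, concentration required for 50% inhibition of growth.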 Calls of active or inactive are those of the source. Rule as the data show it: active = GI50 up to about 1.1 µM and inactive = higher.
# What was measured:
# Experiment in all cases: NCI tumour cell line growth inhibition, 48 h
# A498 = tested on: A498
# A549 = tested on: A549
# ACHN = tested on: ACHN
# HCT-116 = tested on: HCT-116
# HL-60 = tested on: HL-60
# KM12 = tested on: KM12
# M14 = tested on: M14
# MDA-MB-435 = tested on: MDA-MB-435
# NCI-H226 = tested on: NCI-H226
# NCI-H23 = tested on: NCI-H23
# NCI-H460 = tested on: NCI-H460
# OVCAR-3 = tested on: OVCAR-3
# OVCAR-4 = tested on: OVCAR-4
# PC-3 = tested on: PC-3
# RPMI-8226 = tested on: RPMI-8226
# SF-295 = tested on: SF-295
# SK-MEL-2 = tested on: SK-MEL-2
# SN12C = tested on: SN12C
# SW-620 = tested on: SW-620
# RXF 393 = tested on: RXF 393
SMILES,GI50 (A498),GI50 (A549),GI50 (ACHN),GI50 (HCT-116),GI50 (HL-60),GI50 (KM12),GI50 (M14),GI50 (MDA-MB-435),GI50 (NCI-H226),GI50 (NCI-H23),GI50 (NCI-H460),GI50 (OVCAR-3),GI50 (OVCAR-4),GI50 (PC-3),GI50 (RPMI-8226),GI50 (SF-295),GI50 (SK-MEL-2),GI50 (SN12C),GI50 (SW-620),GI50 (RXF 393)
CCN1C(=O)c2ccccc2C1(O)c1ccc(Cl)cc1 (configuration not stated),> 100 µM (inactive),25 µM (inactive),46.5 µM (inactive),37.7 µM (inactive),30 µM (inactive),46 µM (inactive),59.4 µM (inactive),83.2 µM (inactive),16.8 µM (inactive),38.2 µM (inactive),89.7 µM (inactive),31.1 µM (inactive),> 100 µM (inactive),24.7 µM (inactive),61.9 µM (inactive),18.4 µM (inactive),18.7 µM (inactive),> 100 µM (inactive),> 100 µM (inactive),–
C[C@]1(O)O[C@@H]2OCC[C@@H]2C2=C1C(=O)c1ccccc1C2=O,14.1 µM (inactive),17.9 µM (inactive),17.7 µM (inactive),–,12.3 µM (inactive),14.8 µM (inactive),11.3 µM (inactive),6.56 µM (inactive),–,14.7 µM (inactive),16 µM (inactive),9.66 µM (inactive),12.5 µM (inactive),22.1 µM (inactive),3.62 µM (inactive),18.7 µM (inactive),17.4 µM (inactive),23 µM (inactive),18.4 µM (inactive),12.7 µM (inactive)
CSc1nc(C#N)c(/N=C\N(C)C)n1C,> 100 µM (inactive),> 100 µM (inactive),> 100 µM (inactive),> 100 µM (inactive),> 100 µM (inactive),> 100 µM (inactive),> 100 µM (inactive),> 100 µM (inactive),> 100 µM (inactive),> 100 µM (inactive),> 100 µM (inactive),> 100 µM (inactive),> 100 µM (inactive),> 100 µM (inactive),> 100 µM (inactive),> 100 µM (inactive),> 100 µM (inactive),> 100 µM (inactive),> 100 µM (inactive),> 100 µM (inactive)
C=C(Cl)C(Cl)(CBr)CCCC(C)(C)Cl (configuration not stated),19.8 µM (inactive),14.6 µM (inactive),6.68 µM (inactive),14.1 µM (inactive),1.53 µM (inactive),1.7 µM (inactive),> 75.2 µM (inactive),27.2 µM (inactive),> 72.9 µM (inactive),45 µM (inactive),5.71 µM (inactive),2.47 µM (inactive),2.55 µM (inactive),3.25 µM (inactive),1.28 µM (inactive),7.55 µM (inactive),11.4 µM (inactive),60.8 µM (inactive),20.4 µM (inactive),17.7 µM (inactive)
CCN(CC)CCN1CCN=c2c3cc(OC)ccc3n3cnc4ccc1c2c43,0.746 µM (active),0.425 µM (active),0.339 µM (active),0.3 µM (active),0.43 µM (active),0.367 µM (active),0.719 µM (active),0.522 µM (active),1.54 µM (inactive),0.713 µM (active),0.199 µM (active),0.946 µM (active),0.274 µM (active),0.391 µM (active),0.305 µM (active),0.548 µM (active),0.587 µM (active),0.429 µM (active),0.0456 µM (active),0.292 µM (active)
Cc1nc2c(nc1C)-c1c(c3c(n1C)C(=O)CCC3)C(=O)C2=O,0.984 µM (active),1.3 µM (inactive),0.476 µM (active),0.249 µM (active),0.232 µM (active),1.45 µM (inactive),0.338 µM (active),0.174 µM (active),1.41 µM (inactive),0.743 µM (active),1.23 µM (inactive),0.156 µM (active),0.145 µM (active),1.17 µM (inactive),0.194 µM (active),1.75 µM (inactive),0.571 µM (active),0.216 µM (active),0.214 µM (active),0.16 µM (active)
O=c1c2ccccc2nc(-c2ccccc2)n1O,> 100 µM (inactive),71.8 µM (inactive),> 100 µM (inactive),55.8 µM (inactive),54 µM (inactive),67 µM (inactive),95.7 µM (inactive),> 100 µM (inactive),73.5 µM (inactive),71 µM (inactive),64.1 µM (inactive),51.6 µM (inactive),55.5 µM (inactive),> 100 µM (inactive),28.6 µM (inactive),35.3 µM (inactive),> 100 µM (inactive),> 100 µM (inactive),> 100 µM (inactive),31.3 µM (inactive)
